Reference: ChEMBL document CHEMBL1123686, “Esters of N,N-disubstituted 2-hydroxyacetamides as a novel highly biolabile prodrug type for carboxylic acid agents” (J Med Chem, 1987)
In brackets after ≈: the same amount, converted by molar mass.

Columns and labels:
[1] = (§1) Half life of ester hydrolysis in 50% human plasma ( pH of 7.4) at 37 degree Centigrade; conditions: 50% human plasma, pH 7.4
physchem [2] = experiment: physchem
[3] = Second order rate constant for hydroxide ion catalyzed by hydrolysis at 37 degree Centigrade
physchem [4] = experiment: physchem; remark: listed apart in the source
Homo sapiens [5] = species: Homo sapiens; conditions: Plasma, pH 7.4
Description: Ability to undergo in vitro ester hydrolysis in 80% human plasma ( pH of 7.4) at 37 degree Celsius expressed as half life of N,N-diethylglycolamide ester hydrolysis

Homo sapiens [6] = species: Homo sapiens; conditions: Plasma, pH 7.4; remark: listed apart in the source
Description: Ability to undergo in vitro ester hydrolysis in 80% human plasma ( pH of 7.4) at 37 degree Celsius expressed as half life of methyl ester hydrolysis

Homo sapiens [7] = species: Homo sapiens; experiment: as §1; conditions: pH 7.4
[8] = Half life of ester hydrolysis in 50% human plasma ( pH of 7.4) at 37 degree Centigrade.; assay type: ADME, organism-based; conditions: pH 7.4

SMILES	half-life [1] [min]	solubility (physchem [2]) [µg/mL]	kOH [3] [M⁻¹ s⁻¹]	logD (physchem [4]; 0.01 M HCl)	other results
CCCNC(=O)COC(=O)c1ccccc1 [BENZOIC ACID PROPYLCARBAMOYLMETHYL ESTER]	11.2	640 (≈ 2.89 mM)	0.868	1.88	–
CCOC(=O)CN(C)C(=O)COC(=O)c1ccccc1	0.22	–	–	–	–
CC(C)(C)NC(=O)COC(=O)c1ccccc1	4.2	320 (≈ 1.36 mM)	0.855	2.26	–
CN(C)C(=O)COC(=O)c1ccccc1 [BENZOIC ACID DIMETHYLCARBAMOYLMETHYL ESTER]	0.15	8800 (≈ 42.5 mM)	0.325	–	–
CCN(CCO)C(=O)COC(=O)c1ccccc1	0.16	–	0.273	–	–
O=C(O)c1ccccc1O [SALICYLIC ACID]	–	–	–	–	T1/2 (Homo sapiens [5]): 0.08 min; T1/2 (Homo sapiens [6]): 17.6 h
CCN(CC)C(=O)COC(=O)c1ccccc1 [BENZOIC ACID DIETHYLCARBAMOYLMETHYL ESTER]	–	2000 (≈ 8.5 mM)	0.273	–	T1/2 (Homo sapiens [7]): 0.04 min
CN(C)CCN(C)C(=O)COC(=O)c1ccccc1.Cl	0.12	> 200000	0.297	–	–
CN(CCO)C(=O)COC(=O)c1ccccc1	0.2	–	0.268	–	–
C=CCN(CC=C)C(=O)COC(=O)c1ccccc1 [BENZOIC ACID DIALLYLCARBAMOYLMETHYL ESTER]	–	710 (≈ 2.74 mM)	0.307	–	T1/2 (Homo sapiens [7]): 0.08 min; logD (physchem [4]; octanol/water): 2.34
CN(CC(=O)O)C(=O)COC(=O)c1ccccc1	104	–	0.25	0.67	–
COc1ccc2c(c1)c(CC(=O)O)c(C)n2C(=O)c1ccc(Cl)cc1 [INDOMETHACIN]	–	–	–	–	T1/2 (Homo sapiens [5]): 25 min; T1/2 (Homo sapiens [6]): 150 h
CCCN(CCC)C(=O)COC(=O)c1ccccc1 [BENZOIC ACID DIPROPYLCARBAMOYLMETHYL ESTER]	0.14	–	0.237	–	–
CCCCN(CCCC)C(=O)COC(=O)c1ccccc1 [BENZOIC ACID DIBUTYLCARBAMOYLMETHYL ESTER]	3.1	80 (≈ 0.275 mM)	0.188	–	–
CCNC(=O)COC(=O)c1ccccc1 [BENZOIC ACID ETHYLCARBAMOYLMETHYL ESTER]	11.5	1200 (≈ 5.79 mM)	1.1	1.28	–
CNC(=O)COC(=O)c1ccccc1 [BENZOIC ACID METHYLCARBAMOYLMETHYL ESTER]	9.3	3700 (≈ 19.2 mM)	1.42	0.99	–
O=C(OCC(=O)N(CCO)CCO)c1ccccc1	0.42	720000 (≈ 2690 mM)	0.23	–	–
CN1CCN(C(=O)COC(=O)c2ccccc2)CC1	12.7	–	0.357	–	–
NC(=O)COC(=O)c1ccccc1 [BENZOIC ACID CARBAMOYLMETHYL ESTER]	–	4100 (≈ 22.9 mM)	1.32	0.09	half-life [8]: 31 min
